We go through 16 molecules from US9040518B2, “Chemical compounds” (GlaxoSmithKline LLC, priority 2010, dated 2015).

Structures can show the parent of a compound that is named as a salt.

ileal bile acid cotransporter (iBAT), sequence (Q12908 whole entry): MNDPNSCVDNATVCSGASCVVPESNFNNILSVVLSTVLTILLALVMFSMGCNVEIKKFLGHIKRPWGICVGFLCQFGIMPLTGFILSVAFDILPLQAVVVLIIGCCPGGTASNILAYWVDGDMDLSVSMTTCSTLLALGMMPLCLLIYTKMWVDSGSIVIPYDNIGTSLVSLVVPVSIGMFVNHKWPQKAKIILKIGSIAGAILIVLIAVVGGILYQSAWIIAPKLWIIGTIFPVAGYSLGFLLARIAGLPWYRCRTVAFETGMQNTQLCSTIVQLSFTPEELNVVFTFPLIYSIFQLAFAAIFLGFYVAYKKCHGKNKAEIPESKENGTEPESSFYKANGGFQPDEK

This assay has as its target ileal bile acid cotransporter (iBAT) (Homo sapiens (Human), UniProt Q12908). Briefly: Human iBAT inhibition: [3H]-taurocholate uptake into HEK293 cells expressing human iBAT. Type of assay: cell-based. The conditions noted are these: HEK293 cells transduced with human iBAT Bacmam virus, 90 minutes at ambient temperature, mean of at least 2 datapoints.
As usually defined, the IC50 is the concentration at which inhibition is half-maximal. Low readings indicate greater potency, high ones weaker potency. Turning to `CCCCC1(CCCC)CS(=O)(=O)c2cc(CP(=O)(O)O)c(OC)cc2C(c2ccccc2)N1` (stereo not shown) [Example 67, {[3,3-dibutyl-7-(methyloxy)-1,1-dioxido-5-phenyl-2,3,4,5-tetrahydro-1,4-benzothiazepin-8-yl]methyl}phosphonic acid trifluoroacetate salt], half-maximal inhibition (IC50) was put at 52 nM.

`CCCC[C@]1(CC)CS(=O)(=O)c2cc(CCC(=O)NC(CC(=O)O)CC(=O)O)c(OC)cc2[C@@H](c2ccccc2)N1` [Example 17, 3-({3-[(3R,5R)-3-butyl-3-ethyl-7-(methyloxy)-1,1-dioxido-5-phenyl-2,3,4,5-tetrahydro-1,4-benzothiazepin-8-yl]propanoyl}amino)pentanedioic acid trifluoroacetate salt] displayed an IC50 of 3330 nM.

In turn, `CCCC[C@]1(CC)CS(=O)(=O)c2cc(C(=O)N(CC(=O)O)CC(=O)O)c(OC)cc2[C@@H](c2ccccc2)N1` [Example 4, 2,2′-({[(3R,5R)-3-butyl-3-ethyl-7-(methyloxy)-1,1-dioxido-5-phenyl-2,3,4,5-tetrahydro-1,4-benzothiazepin-8-yl]carbonyl}imino)diacetic acid hydrochloride] had an IC50 of 2540 nM.

In the case of `CCCC[C@]1(CC)CS(=O)(=O)c2cc(CN(O)CC(=O)O)c(OC)cc2[C@@H](c2ccccc2)N1` [Example 48, N-{[(3R,5R)-3-butyl-3-ethyl-7-(methyloxy)-1,1-dioxido-5-phenyl-2,3,4,5-tetrahydro-1,4-benzothiazepin-8-yl]methyl}-N-hydroxyglycine], the half-maximal inhibitory concentration (IC50) was 17 nM.

On to `CCCC[C@]1(CC)CS(=O)(=O)c2cc(CN[C@@H](CCCCN(C)C)C(=O)O)c(OC)cc2[C@@H](c2ccccc2)N1` [Example 59, N^2-{[(3R,5R)-3-butyl-3-ethyl-7-(methyloxy)-1,1-dioxido-5-phenyl-2,3,4,5-tetrahydro-1,4-benzothiazepin-8-yl]methyl}-N^6,N^6-dimethyl-L-lysine ammonium salt], for which the IC50 is 3330 nM.

Molecule `CCCC[C@]1(CC)CS(=O)(=O)c2cc(CN[C@H](C(=O)O)[C@@H](C)O)c(OC)cc2[C@@H](c2ccccc2)N1` [Example 56, N-{[(3R,5R)-3-butyl-3-ethyl-7-(methyloxy)-1,1-dioxido-5-phenyl-2,3,4,5-tetrahydro-1,4-benzothiazepin-8-yl]methyl}-L-threonine ammonium salt] came in with an IC50 of 425 nM.

With `CCCC[C@]1(CC)CS(=O)(=O)c2cc(CCCP(=O)(O)O)c(OC)cc2[C@@H](c2ccccc2)N1` [Example 21, {3-[(3R,5R)-3-butyl-3-ethyl-7-(methyloxy)-1,1-dioxido-5-phenyl-2,3,4,5-tetrahydro-1,4-benzothiazepin-8-yl]propyl}phosphonic acid trifluoroacetate salt], the 50% inhibitory concentration (IC50) turned out to be 51 nM.

The molecule `CCCC[C@]1(CC)CS(=O)(=O)c2cc(CNC(CC(=O)O)CC(=O)O)c(OC)cc2[C@@H](c2ccccc2)N1` [Example 26, 3-({[(3R,5R)-3-butyl-3-ethyl-7-(methyloxy)-1,1-dioxido-5-phenyl-2,3,4,5-tetrahydro-1,4-benzothiazepin-8-yl]methyl}amino)pentanedioic acid] came in with an IC50 of 43 nM.

Regarding `CCCC[C@]1(CC)CS(=O)(=O)c2cc(CNC(=O)CP(=O)(O)O)c(OC)cc2[C@@H](c2ccccc2)N1` [Example 38, [2-({[(3R,5R)-3-butyl-3-ethyl-7-(methyloxy)-1,1-dioxido-5-phenyl-2,3,4,5-tetrahydro-1,4-benzothiazepin-8-yl]methyl}amino)-2-oxoethyl]phosphonic acid trifluoroacetate salt], the IC50 is 249 nM.

For `CCCC[C@]1(CC)CS(=O)(=O)c2cc(CCC(=O)NO)c(OC)cc2[C@@H](c2ccccc2)N1` [Example 12, 3-[(3R,5R)-3-butyl-3-ethyl-7-(methyloxy)-1,1-dioxido-5-phenyl-2,3,4,5-tetrahydro-1,4-benzothiazepin-8-yl]-N-hydroxypropanamide], half-maximal inhibition (IC50) required 68 nM.

On to `CCCC[C@]1(CC)CS(=O)(=O)c2cc(CCCNCCS(=O)(=O)O)c(OC)cc2[C@@H](c2ccccc2)N1` [Example 22, 2-({3-[(3R,5R)-3-butyl-3-ethyl-7-(methyloxy)-1,1-dioxido-5-phenyl-2,3,4,5-tetrahydro-1,4-benzothiazepin-8-yl]propyl}amino)ethanesulfonic acid], for which the IC50 was determined as 2440 nM.

As to `CCCC[C@]1(CC)CS(=O)(=O)c2cc(CNC(=O)CNCC(=O)O)c(OC)cc2[C@@H](c2ccccc2)N1` [Example 39, N-[2-({[(3R,5R)-3-butyl-3-ethyl-7-(methyloxy)-1,1-dioxido-5-phenyl-2,3,4,5-tetrahydro-1,4-benzothiazepin-8-yl]methyl}amino)-2-oxoethyl]glycine trifluoroacetate salt], the IC50 is 619 nM.

In turn, `CCCC[C@]1(CC)CS(=O)(=O)c2cc(CN[C@@H](CCCCN)C(=O)O)c(OC)cc2[C@@H](c2ccccc2)N1` [Example 58, N^2-{[(3R,5R)-3-butyl-3-ethyl-7-(methyloxy)-1,1-dioxido-5-phenyl-2,3,4,5-tetrahydro-1,4-benzothiazepin-8-yl]methyl}-L-lysine ammonium salt] yielded an IC50 of 1460 nM.

Take `CCCC[C@]1(CC)CS(=O)(=O)c2cc(CNCCCC(=O)O)c(OC)cc2[C@@H](c2ccccc2)N1` [Example 30, 4-({[(3R,5R)-3-butyl-3-ethyl-7-(methyloxy)-1,1-dioxido-5-phenyl-2,3,4,5-tetrahydro-1,4-benzothiazepin-8-yl]methyl}amino)butanoic acid trifluoroacetate salt]: inhibition was half-maximal at 1290 nM (IC50).

With `CCCC[C@]1(CC)CS(=O)(=O)c2cc(CP(=O)(O)O)c(OC)cc2[C@@H](c2ccccc2)N1O` [Example 54, {[(3R,5R)-3-butyl-3-ethyl-4-hydroxy-7-(methyloxy)-1,1-dioxido-5-phenyl-2,3,4,5-tetrahydro-1,4-benzothiazepin-8-yl]methyl}phosphonic acid], the midpoint of inhibition, the IC50, lay at 124 nM.

`CCCC[C@]1(CC)CS(=O)(=O)c2cc(CCC(=O)N(CC(=O)O)CC(=O)O)c(OC)cc2[C@@H](c2ccccc2)N1` [Example 18, 2,2′-({3-[(3R,5R)-3-butyl-3-ethyl-7-(methyloxy)-1,1-dioxido-5-phenyl-2,3,4,5-tetrahydro-1,4-benzothiazepin-8-yl]propanoyl}imino)diacetic acid] displayed an IC50 of 728 nM.
